Patent publication US20110230481A2, “DERIVATIVES OF TETRABROMOBENZIMIDAZOLE, A PROCESS FOR THE PREPARATION THEREOF, A PHARMACEUTICAL COMPOSITION COMPRISING THE SAME, A METHOD OF USING THE SAME, A METHOD FOR MODULATING OR REGULATING SERINE/THREONINE KINASES, AND SERINE/THREONINE KINASES MODULATING AGENT” (SELVITA S.A., priority 2009, published 2011)

Legend:
Assay in all cases: KINOMEscan Max
Type in all cases: binding
MYO3A = MYO3A (Homo sapiens, UniProt Q8NEV4)
Summary of the method: (§1)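 DNA-tagged kinase + immobilized active-site directed ligand + test compound combined; ligand-bound kinase quantified by qPCR of tag. Competition binding format.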

MAP3K15 = target: T1, MAP3K15 (Homo sapiens, UniProt Q6ZN16)
T1 construct: purchased Ambit Kinomescan (contract panel)
Summary of the method: as §1

CSNK1E = target: T2, CSNK1E (Homo sapiens, UniProt P49674)
T2 construct: DNA tag (qPCR read-out)
Summary of the method: as §1

WEE1 = WEE1 (Homo sapiens, UniProt P30291)
Sequence of WEE1 (P30291 whole entry): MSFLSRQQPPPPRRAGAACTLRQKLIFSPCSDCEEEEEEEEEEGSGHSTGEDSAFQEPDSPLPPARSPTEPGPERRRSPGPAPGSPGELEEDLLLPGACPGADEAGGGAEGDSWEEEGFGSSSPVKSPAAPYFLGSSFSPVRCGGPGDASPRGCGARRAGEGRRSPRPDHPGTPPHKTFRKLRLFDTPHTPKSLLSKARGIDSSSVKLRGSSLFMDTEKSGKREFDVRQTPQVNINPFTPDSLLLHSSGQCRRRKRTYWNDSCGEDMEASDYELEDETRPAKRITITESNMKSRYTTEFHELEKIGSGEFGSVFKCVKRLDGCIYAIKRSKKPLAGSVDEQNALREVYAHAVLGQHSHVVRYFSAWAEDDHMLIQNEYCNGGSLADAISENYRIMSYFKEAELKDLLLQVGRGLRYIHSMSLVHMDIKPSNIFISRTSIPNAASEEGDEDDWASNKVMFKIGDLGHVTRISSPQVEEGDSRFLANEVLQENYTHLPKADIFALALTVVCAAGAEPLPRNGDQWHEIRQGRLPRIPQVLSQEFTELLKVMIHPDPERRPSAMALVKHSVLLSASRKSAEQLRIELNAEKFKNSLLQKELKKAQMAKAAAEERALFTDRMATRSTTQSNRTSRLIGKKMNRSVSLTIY
Summary of the method: as §1

MELK = target: T3, MELK (Homo sapiens, UniProt Q14680)
T3 construct: purchased Ambit (KINOMEscan Max service)
Summary of the method: as §1

YANK2 = target: T4, YANK2 (Homo sapiens, UniProt Q9NY57)
T4 construct: purchased Ambit Kinomescan (contract screening service)
Summary of the method: as §1

PIP5K2C = target: T5, PIP5K2C (Homo sapiens, UniProt Q8TBX8)
T5 construct: DNA tag (qPCR read-out)
Summary of the method: as §1

TIE2 = TIE2 (Homo sapiens, UniProt Q02763)
Summary of the method: as §1

NDR1 = NDR1 (Homo sapiens, UniProt Q15208)
Summary of the method: as §1

MKNK2 = target: T6, MKNK2 (Homo sapiens, UniProt Q9HBH9)
T6 construct: DNA tag (qPCR read-out)
Summary of the method: as §1

CSNK1A1L = CSNK1A1L (Homo sapiens, UniProt Q8N752)
Summary of the method: as §1

PIK3CB = target: T7, PIK3CB (Homo sapiens, UniProt P42338)
T7 construct: DNA tag (qPCR read-out)
Summary of the method: as §1

TAOK3 = target: T8, TAOK3 (Homo sapiens, UniProt Q9H2K8)
T8 construct: purchased Ambit Kinomescan (contract screening service)
Summary of the method: as §1

MARK1 = target: T9, MARK1 (Homo sapiens, UniProt Q9P0L2)
T9 construct: purchased Ambit Kinomescan (contract panel)
Summary of the method: as §1

FLT3 = target: T10, FLT3 (Homo sapiens, UniProt P36888)
T10 construct: purchased Ambit Kinomescan (contract panel, KINOMEscan Max)
Summary of the method: as §1

FGFR4 = target: T11, FGFR4 (Homo sapiens, UniProt P22455)
T11 construct: purchased Ambit (KINOMEscan Max service)
Summary of the method: as §1

PIK3C2G = target: T12, PIK3C2G (Homo sapiens, UniProt O75747)
T12 construct: DNA tag (qPCR read-out)
T12 sequence (O75747 whole entry): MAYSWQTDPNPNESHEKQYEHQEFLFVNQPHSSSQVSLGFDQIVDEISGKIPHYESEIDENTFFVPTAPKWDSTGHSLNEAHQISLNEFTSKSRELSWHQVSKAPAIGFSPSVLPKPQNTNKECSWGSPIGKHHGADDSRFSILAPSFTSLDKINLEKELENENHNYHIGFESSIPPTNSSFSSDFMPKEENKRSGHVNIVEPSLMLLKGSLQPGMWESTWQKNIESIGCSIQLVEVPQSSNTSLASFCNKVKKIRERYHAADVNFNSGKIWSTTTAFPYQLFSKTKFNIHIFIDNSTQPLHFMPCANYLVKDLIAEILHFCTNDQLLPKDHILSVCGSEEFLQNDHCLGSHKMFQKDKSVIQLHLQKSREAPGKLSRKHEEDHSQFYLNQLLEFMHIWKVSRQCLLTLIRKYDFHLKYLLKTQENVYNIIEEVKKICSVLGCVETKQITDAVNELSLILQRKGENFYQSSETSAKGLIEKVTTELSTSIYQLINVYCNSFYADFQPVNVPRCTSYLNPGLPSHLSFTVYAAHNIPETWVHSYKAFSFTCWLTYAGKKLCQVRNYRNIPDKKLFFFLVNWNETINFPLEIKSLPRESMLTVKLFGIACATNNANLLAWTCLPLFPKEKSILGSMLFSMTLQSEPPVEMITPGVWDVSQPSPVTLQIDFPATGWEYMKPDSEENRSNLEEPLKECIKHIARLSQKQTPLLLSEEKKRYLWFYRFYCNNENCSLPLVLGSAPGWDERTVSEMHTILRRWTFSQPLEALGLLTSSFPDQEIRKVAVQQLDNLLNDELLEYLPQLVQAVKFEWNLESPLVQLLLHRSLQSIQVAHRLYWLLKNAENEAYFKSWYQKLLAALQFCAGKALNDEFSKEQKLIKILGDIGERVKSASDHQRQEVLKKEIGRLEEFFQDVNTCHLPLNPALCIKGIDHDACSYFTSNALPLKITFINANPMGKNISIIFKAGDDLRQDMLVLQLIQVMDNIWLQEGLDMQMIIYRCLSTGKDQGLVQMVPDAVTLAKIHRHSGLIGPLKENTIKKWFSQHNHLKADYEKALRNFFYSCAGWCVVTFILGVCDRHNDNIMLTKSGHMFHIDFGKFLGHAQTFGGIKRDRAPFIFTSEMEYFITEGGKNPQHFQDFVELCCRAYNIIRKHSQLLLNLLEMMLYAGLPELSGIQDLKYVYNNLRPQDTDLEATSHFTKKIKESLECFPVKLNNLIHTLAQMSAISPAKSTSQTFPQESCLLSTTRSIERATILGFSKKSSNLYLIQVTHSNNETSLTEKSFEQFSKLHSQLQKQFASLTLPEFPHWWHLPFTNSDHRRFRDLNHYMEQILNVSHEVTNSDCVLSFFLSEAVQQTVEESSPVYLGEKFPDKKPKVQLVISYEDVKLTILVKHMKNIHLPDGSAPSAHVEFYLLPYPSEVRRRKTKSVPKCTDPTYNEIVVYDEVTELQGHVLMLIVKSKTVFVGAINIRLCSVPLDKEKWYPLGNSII
Summary of the method: as §1

MAP4K3 = target: T13, MAP4K3 (Homo sapiens, UniProt Q8IVH8); conditions: 1 μM
T13 construct: purchased Ambit (KINOMEscan Max service)
Summary of the method: as §1

IKK-beta = target: T14, IKK-beta (Homo sapiens, UniProt O14920)
T14 construct: DNA tag (qPCR read-out)
Summary of the method: as §1

FYN = target: T15, FYN (Homo sapiens, UniProt P06241)
T15 construct: purchased Ambit Kinomescan (contract panel, KINOMEscan Max)
T15 sequence (P06241 whole entry): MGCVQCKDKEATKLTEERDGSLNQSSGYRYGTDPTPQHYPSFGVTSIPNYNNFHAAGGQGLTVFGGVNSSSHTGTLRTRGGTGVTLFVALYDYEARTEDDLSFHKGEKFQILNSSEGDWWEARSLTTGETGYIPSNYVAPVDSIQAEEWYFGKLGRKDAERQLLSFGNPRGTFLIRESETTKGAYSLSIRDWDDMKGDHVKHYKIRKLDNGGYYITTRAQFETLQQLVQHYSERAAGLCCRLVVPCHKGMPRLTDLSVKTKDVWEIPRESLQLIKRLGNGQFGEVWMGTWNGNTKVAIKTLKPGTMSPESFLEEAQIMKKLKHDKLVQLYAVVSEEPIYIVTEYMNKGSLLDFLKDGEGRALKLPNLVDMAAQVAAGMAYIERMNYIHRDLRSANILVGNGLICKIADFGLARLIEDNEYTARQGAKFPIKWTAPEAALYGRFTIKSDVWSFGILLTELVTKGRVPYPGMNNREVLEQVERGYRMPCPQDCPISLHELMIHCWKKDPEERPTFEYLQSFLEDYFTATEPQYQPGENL
Summary of the method: as §1

PIK4CB = target: T16, PIK4CB (Homo sapiens, UniProt Q9UBF8)
T16 construct: DNA tag (qPCR read-out)
Summary of the method: as §1

PKNB(M.tuberculosis) = PKNB(M.tuberculosis) (Mycobacterium tuberculosis, UniProt P9WI81)
JNK2 = target: T17, JNK2 (Homo sapiens, UniProt P45984); conditions: 1 μM
T17 construct: purchased Ambit Kinomescan (contract panel)
Summary of the method: as §1

DCAMKL3 = target: T18, DCAMKL3 (Homo sapiens, UniProt Q9C098)
T18 construct: purchased Ambit (KINOMEscan Max panel service)
Summary of the method: as §1

AURKC = target: T19, AURKC (Homo sapiens, UniProt Q9UQB9)
T19 construct: purchased Ambit (KINOMEscan Max service)
Summary of the method: as §1

CDK3 = CDK3 (Homo sapiens, UniProt Q00526); conditions: 1 μM
Summary of the method: as §1

HIPK1 = target: T20, HIPK1 (Homo sapiens, UniProt Q86Z02)
T20 construct: DNA tag (qPCR read-out); purchased Ambit Kinomescan
Summary of the method: as §1

RET(M918T) = target: T21, RET(M918T) (Homo sapiens, UniProt P07949, M918T)
T21 construct: DNA tag (qPCR read-out)
Summary of the method: as §1

CSNK2A1 = target: T22, CSNK2A1 (Homo sapiens, UniProt P68400)
T22 construct: purchased Ambit (KINOMEscan Max panel service)
T22 sequence (P68400 whole entry): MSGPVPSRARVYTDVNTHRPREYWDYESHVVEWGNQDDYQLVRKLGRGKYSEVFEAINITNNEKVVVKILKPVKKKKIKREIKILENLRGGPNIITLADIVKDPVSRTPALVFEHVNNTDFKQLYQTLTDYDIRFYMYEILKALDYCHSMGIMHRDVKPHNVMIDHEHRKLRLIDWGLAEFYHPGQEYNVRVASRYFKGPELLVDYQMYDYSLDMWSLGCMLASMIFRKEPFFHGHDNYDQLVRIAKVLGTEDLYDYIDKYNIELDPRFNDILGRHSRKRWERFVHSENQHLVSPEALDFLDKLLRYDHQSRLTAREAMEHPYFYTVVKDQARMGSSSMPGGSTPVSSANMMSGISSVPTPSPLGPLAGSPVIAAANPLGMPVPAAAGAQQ
Summary of the method: as §1

LATS2 = target: T23, LATS2 (Homo sapiens, UniProt Q9NRM7); conditions: 1 μM
T23 construct: purchased Ambit (KINOMEscan Max service)
Summary of the method: as §1

DRAK2 = target: T24, DRAK2 (Homo sapiens, UniProt O94768)
T24 construct: purchased Ambit (KINOMEscan Max panel service)
Summary of the method: as §1

ULK2 = target: T25, ULK2 (Homo sapiens, UniProt Q8IYT8)
T25 construct: purchased Ambit (KINOMEscan Max service)
T25 sequence (Q8IYT8 whole entry): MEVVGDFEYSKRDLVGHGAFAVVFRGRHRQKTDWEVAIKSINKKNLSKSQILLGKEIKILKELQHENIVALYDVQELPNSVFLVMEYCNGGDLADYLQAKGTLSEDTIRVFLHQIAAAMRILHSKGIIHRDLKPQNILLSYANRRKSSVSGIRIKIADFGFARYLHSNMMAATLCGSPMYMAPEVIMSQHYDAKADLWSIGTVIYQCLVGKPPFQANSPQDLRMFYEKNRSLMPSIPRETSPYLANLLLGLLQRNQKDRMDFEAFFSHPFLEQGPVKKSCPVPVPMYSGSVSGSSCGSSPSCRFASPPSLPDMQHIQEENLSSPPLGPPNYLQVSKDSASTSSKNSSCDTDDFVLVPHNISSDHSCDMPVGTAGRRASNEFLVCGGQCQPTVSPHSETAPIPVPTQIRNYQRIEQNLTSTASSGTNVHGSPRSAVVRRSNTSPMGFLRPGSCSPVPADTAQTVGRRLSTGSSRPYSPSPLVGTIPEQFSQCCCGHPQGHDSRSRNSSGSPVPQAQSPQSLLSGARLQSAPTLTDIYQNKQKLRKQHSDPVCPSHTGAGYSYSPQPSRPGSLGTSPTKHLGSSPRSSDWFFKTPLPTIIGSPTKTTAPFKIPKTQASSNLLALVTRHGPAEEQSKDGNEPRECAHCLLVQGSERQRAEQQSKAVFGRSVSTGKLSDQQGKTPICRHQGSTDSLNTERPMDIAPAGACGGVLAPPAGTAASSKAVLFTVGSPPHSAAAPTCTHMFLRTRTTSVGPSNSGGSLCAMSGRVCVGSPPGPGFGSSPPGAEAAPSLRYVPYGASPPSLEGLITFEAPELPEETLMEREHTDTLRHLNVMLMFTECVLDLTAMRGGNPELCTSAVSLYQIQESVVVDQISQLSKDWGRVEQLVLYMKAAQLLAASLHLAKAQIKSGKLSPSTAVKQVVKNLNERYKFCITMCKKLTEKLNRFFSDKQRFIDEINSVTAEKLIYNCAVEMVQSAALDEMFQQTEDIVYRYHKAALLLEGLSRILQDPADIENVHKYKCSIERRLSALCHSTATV
Summary of the method: as §1

CSNK1D = target: T26, CSNK1D (Homo sapiens, UniProt P48730)
T26 construct: DNA tag (qPCR read-out); purchased Ambit Kinomescan
Summary of the method: as §1

SgK110 = target: T27, SgK110 (Homo sapiens, UniProt P0C264)
T27 construct: DNA tag (qPCR read-out)
Summary of the method: as §1

LTK = target: T28, LTK (Homo sapiens, UniProt P29376)
T28 construct: purchased Ambit Kinomescan (contract panel)
T28 sequence (P29376 17-864): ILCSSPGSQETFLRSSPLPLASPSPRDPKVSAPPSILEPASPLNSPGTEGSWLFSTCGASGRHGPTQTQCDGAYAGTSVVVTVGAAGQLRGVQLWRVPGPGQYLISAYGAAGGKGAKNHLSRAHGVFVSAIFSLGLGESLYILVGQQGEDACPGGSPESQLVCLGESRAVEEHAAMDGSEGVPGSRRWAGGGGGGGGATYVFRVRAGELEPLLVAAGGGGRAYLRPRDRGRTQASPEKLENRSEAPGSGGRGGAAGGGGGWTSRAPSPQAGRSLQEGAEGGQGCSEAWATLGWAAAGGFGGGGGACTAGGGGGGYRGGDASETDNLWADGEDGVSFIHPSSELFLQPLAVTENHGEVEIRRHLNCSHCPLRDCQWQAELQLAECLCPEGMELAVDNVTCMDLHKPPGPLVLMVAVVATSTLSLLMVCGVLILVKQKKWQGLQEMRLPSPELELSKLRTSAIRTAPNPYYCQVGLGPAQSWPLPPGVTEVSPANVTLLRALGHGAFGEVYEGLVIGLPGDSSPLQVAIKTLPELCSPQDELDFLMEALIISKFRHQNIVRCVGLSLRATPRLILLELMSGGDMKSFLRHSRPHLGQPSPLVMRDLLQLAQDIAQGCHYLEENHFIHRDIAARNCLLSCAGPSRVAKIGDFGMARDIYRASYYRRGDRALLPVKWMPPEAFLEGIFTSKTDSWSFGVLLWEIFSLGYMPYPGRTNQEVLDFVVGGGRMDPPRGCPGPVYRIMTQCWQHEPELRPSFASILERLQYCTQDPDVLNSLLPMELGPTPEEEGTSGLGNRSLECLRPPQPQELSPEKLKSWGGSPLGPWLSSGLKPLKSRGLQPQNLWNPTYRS
Summary of the method: as §1

For `NCCCNc1nc2c(Br)c(Br)c(Br)c(Br)c2[nH]1` [Compound 11, N-(3-aminopropyl)-4,5,6,7-tetrabromo-1H-benzo[d]imidazol-2-amine], the remaining binding at 1 µM (MYO3A) was 100%, the remaining binding at 1 µM (MAP3K15) was 100% and the remaining binding at 1 µM (CSNK1E) was 34%. The remaining binding at 1 µM (WEE1) was 91%, the remaining binding at 1 µM (MELK) was 82% and the remaining binding at 1 µM (YANK2) was 100%. The remaining binding at 1 µM (PIP5K2C) was 56%, the remaining binding at 1 µM (TIE2) was 91% and the remaining binding at 1 µM (NDR1) was 100%. It also gave a remaining binding at 1 µM (MKNK2) of 35%, a remaining binding at 1 µM (CSNK1A1L) of 76% and a remaining binding at 1 µM (PIK3CB) of 100%. For the same compound, the remaining binding at 1 µM (TAOK3) was 100%, the remaining binding at 1 µM (MARK1) was 100% and the remaining binding at 1 µM (FLT3) was 100%. The remaining binding at 1 µM (FGFR4) was 84%, the remaining binding at 1 µM (PIK3C2G) was 100% and the “% binding” value (MAP4K3) was 85%. It also gave a remaining binding at 1 µM (IKK-beta) of 56%, a remaining binding at 1 µM (FYN) of 100% and a remaining binding at 1 µM (PIK4CB) of 100%. For the same compound, the remaining binding at 1 µM (PKNB(M.tuberculosis)) was 91%, the “% binding” value (JNK2) was 100% and the remaining binding at 1 µM (DCAMKL3) was 100%. For the same compound, the remaining binding at 1 µM (AURKC) was 83%, the “% binding” value (CDK3) was 74% and the remaining binding at 1 µM (HIPK1) was 2.8%. For the same compound, the remaining binding at 1 µM (RET(M918T)) was 100%, the remaining binding at 1 µM (CSNK2A1) was 100% and the “% binding” value (LATS2) was 70%. For the same compound, the remaining binding at 1 µM (DRAK2) was 100%, the remaining binding at 1 µM (ULK2) was 60% and the remaining binding at 1 µM (CSNK1D) was 17%. It also gave a remaining binding at 1 µM (SgK110) of 100% and a remaining binding at 1 µM (LTK) of 100%.
